Legend:
[1] = Heme binding of purified Hpr6 proteins by absorbance at 400 nm; conditions: purified protein liberated from GST fusion, triplicate
Method: FIG. 2. […] 2A: Purification of GST-Hpr6 (lane 1) and GST-Hpr6-mut (lane 2) fusion proteins. Proteins were purified using glutathione-agarose and analyzed by SDS-PAGE electrophoresis. 2B: Heme binding by Hpr6 (left column) but not Hpr6-mut (right column). Solubilized proteins were analyzed for absorbance at 400 nm, and measurements were performed in triplicate. 2C: western blot analysis of MDA-MB-231 cells infected with 500, 1000, or 2000 pfu/cell of Ad-Hpr6-mut (lanes 1-3) or 2000 pfu/cell of Ad-LacZ (lane 4). Hpr6 expression was visualized with an antibody to the HA epitope tag. D. The Hpr6-mut protein is overexpressed compared to endogenous Hpr6 following Ad-Hpr6-mut infection. MDA-MB 231 cells were infected with Ad-LacZ (lane 1) or Ad-Hpr6-mut (lane 2) and analyzed by western blots probed for HA (top panel), Hpr6 (middle panel), or tubulin (bottom panel). The positions of the exogenous Hpr6-mut and endogenous Hpr6 protein are indicated in the center panel (top and bottom, respectively).
Fusion protein plasmids, preparation, and analysis. Hpr6-GST fusion proteins contained amino acids 43-195 of the Hpr6 open reading frame. […]
Hpr6 binds to heme, and the D120G mutation in the heme-1 domain blocks heme-binding activity. […] The measurement was performed in triplicate, and the difference between Hpr6 and Hpr6-D120G absorbance was statistically significant (P=0.03). […]

Hpr6 = assay: Induction of Hpr6 expression by drugs, western blot; type: cell-based, human
Text: 1A: western blot analysis showing expression of Hpr6 (top panel) and tubulin (bottom panel) in the cell lines BT549 (lane 1), MCF-7 (lane 2), HCT-100 (lane 3), MDA-MB-231 (lane 4), MDA-MB-435 (lane 5), and HeLa (lane 6). […] The position of molecular weight markers is indicated to the left. […] MDA-MB-231 cells were untreated (upper panel, lane 1), treated with 0.5 or μM doxorubicin (upper panel, lanes 2 and 3), or 0.25 1 μm camptothecin (upper panel, lane 4) for 3 days, and the expression of Hpr6 was analyzed by western blot.
Drug treatment, viability assays, and immunological analyses. Doxorubicin (Sigma, St. Louis, Mo.) was added to culture media and incubated for five days. Cells were incubated with hydrogen peroxide (Fisher), mechlorethamine (kindly provided by Dr. Robert Orlowski, University of North Carolina at Chapel Hill) or camptothecin (Sigma) for 72 hours. Trypan blue and MTT assays were performed using standard techniques as previously described (Hand et al. Journal of Cellular Biochemistry 2003; 90: 534-47). Western blots of cultured cells and tumors were performed as described previously (Hand et al. Journal of Cellular Biochemistry 2003; 90: 534-47; Yang et al. Tumor Biology 2003; 24: 61-9). The antibodies used were as follows: anti-HA (HAll, BAbCo, Berkeley, Calif.), tubulin (Fisher), and Hpr6 (Meyer et al. Steroids 1998; 63: 111-6). Cells were visualized using a VistaVision inverted microscope attached to a Sony DCS F717 digital camera (VWR, Batavia, Ill.). For immunofluorescence, MCF-7/vector and MCF-7/Hpr6 cells (Hand et al. Journal of Cellular Biochemistry 2003; 90: 534-47) were fixed with 3.7% formaldehyde, permeabilized with 0.1% Triton X-100, blocked with 10% normal goat serum, and incubated with the HAll monoclonal antibody. Cells were then washed, incubated with a FITC-Iabeled anti-mouse secondary antibody (Santa Cruz Biotechnology, Santa Cruz, Calif.), washed, mounted, and visualized using a Zeiss fluorescent microscope.
The effect of the Ad-Hpr6-mut adenovirus in response to chemotherapy was analyzed for two reasons. First, the budding yeast homologue of Hpr6 controls resistance to damaging agents.

Hpr6-D120G: mutant Hpr6 polypeptide, SEQ ID NO:1, aspartic acid 120 in heme binding region mutated to glycine; inactive form
heme binding (absorbance at 400 nm) [1]: absent

COc1cccc2c1C(=O)c1c(O)c3c(c(O)c1C2=O)C[C@@](O)(C(=O)CO)C[C@@H]3O[C@H]1C[C@H](N)[C@H](O)[C@H](C)O1 [doxorubicin]
induction of Hpr6 expression (Hpr6; MCF-7 cells, data not shown): induced | induction of Hpr6 expression (Hpr6; MDA-MB-231 cells, western blot): induced

CC[C@@]1(O)C(=O)OCc2c1cc1n(c2=O)Cc2cc3ccccc3nc2-1 [camptothecin]
induction of Hpr6 expression (Hpr6; MCF-7 cells, data not shown): induced | induction of Hpr6 expression (Hpr6; MDA-MB-231 cells, western blot): induced

N.N.[Cl][Pt][Cl] [cisplatinum]
induction of Hpr6 expression (Hpr6; MDA-MB-231 cells, western blot): not induced

Hpr6: wild-type human heme-1 domain protein Hpr6
heme binding (absorbance at 400 nm) [1]: bound efficiently to heme

OO [hydrogen peroxide]
induction of Hpr6 expression (Hpr6; MDA-MB-231 cells, western blot): not induced

From US7342100B2, “Hpr6 mutants and uses thereof” (University of Kentucky Research Foundation, priority 2004, dated 2008)
